In patent US8188085B2, “Antifungal agents” (Merck Sharp & Dohme Corp., priority 2008, dated 2012):

biological target: glucan synthase (GS) prepared from Candida albicans MY1055 (Candida albicans, UniProt O13428); assay: Glucan synthase inhibition (polymerization assay, 96-well); type: biochemical; conditions: GS from C. albicans MY1055; 60 min incubation at 22° C.; read-out: Candida Albicans GS IC50 (converted)
Procedure: The in vitro evaluation of glucan synthase inhibitory activity of compounds was measured in a polymerization assay in 96-well format. Each well contained 100 μL of ^3H-UDPG at 0.5 mM (6000 to 8000 dpm/nmol), 50 mM HEPES pH 7.5 (Sigma), 10% w/v glycerol (Sigma), 1.5 mg/mL bovine serum albumin (Sigma A 9647. Lot 44H0190), 25 mM KF (Fisher), 1 mM EDTA (Gibco ULTRAPURE), 25 μM GTP-γ-S, enzyme sufficient to give 3 to 6 nmoles incorporation during the 60 min incubation at 22° C., and test compound added from wells in 3-fold serial dilutions in 100% DMSO (1 μL/well). The reaction was stopped by the addition of 100 μL of 20% trichloroacetic acid. Plates were chilled for a minimum of 10 min, and precipitated glucan collected by filtration on GF/C plates (Packard UNIFILTER®-96), washed with 5 cycles of water (about 1 mL/well each cycle) using a Packard FILTERMATE HARVESTER. 40 μL/well scintillation fluid (Packard ULTIMA GOLD TM-XR) was added and the sealed plates counted in a WALLAC BETA counter in top-counting mode at an efficiency of approximately 40%.
Stock solutions were stored at 10 mg/mL in DMSO at −20° C. For each new enzyme preparation, the initial titration performed started at 1 mg/mL, which was prepared by making a 10-fold dilution in DMSO (5 μL to 50 μL). 40 μL of this stock was placed in column 12 of a round-bottomed 96-well microtiter plate. 40 μL DMSO was added to columns 1 to 11 in the same row and ten 3-fold serial dilutions performed, by transferring 20 μL from column 12 to column 11 etc., with 4 mixings before each transfer. No test compound was transferred to from column 2 to column 1. Duplicate aliquots of 1 μL of all 12 dilutions were then transferred to the side walls of a 96-well Bioblock 1.1 mL plate (Fisher brand) to create two rows.
Graphs of the primary data were created in PRISM software (the average of two determinations) using PRISM's curve fitting program (sigmoidal dose response non-linear regression). The amount of compound required to inhibit glucan synthase activity by 50% in this assay (IC50−ng/mL) was calculated.
Routine analysis was performed with glucan synthase (GS) prepared from Candida albicans MY1055 by the following procedure: MY1055 was grown in 10 liters YPD medium (10 g yeast extract, 20 g tryptone, 20 g glucose per liter) with vigorous shaking at 30° C., to early stationary phase. Cells were harvested by centrifugation, the pellet was washed and frozen at −70° C. until breakage. Thawed pellets were shaken with an equal volume of breakage buffer (50 mM HEPES pH 7.4, 10% glycerol, 1 mM EDTA, 1 mM PMSF, 1 mM DTT) and 4 times their weight of 0.5 mm acid washed glass beads for 2 hours at 4° C. Extent of breakage was assessed visually at 40× magnification. After low speed centrifugation to remove cell debris, the supernatant was centrifuged at 100,000×g for 60 min. to separate membranes plus ribosomes from cytoplasmic components. Membranes were further washed two additional times with breakage buffer using the same centrifugation conditions and finally suspended in breakage buffer at 25 to 30 mg/mL protein (Biorad) for storage at −70° C. Extraction of GS activity from membranes was performed at a protein concentration of 5 mg/mL in extraction buffer (50 mM NaPO4 pH 7.5, 0.1 M KCl, 0.1M Na citrate, 20% glycerol, 5 μM GTP-γ-S, 1 mM DTT, 1 mM PMSF, 3 μg/mL pepstatin) plus 0.25% W1 by gentle mixing at 4° C. for 60 min, followed by centrifugation at 100,000×g for 60 min. After centrifugation, clear supernatant was removed from a pellet consisting of a hard layer usually with small amounts of gelatinous unextracted membranes above it.
Trapping was initiated immediately by 5-fold dilution in trapping buffer (50 mM HEPES pH 7.5, 10 mM KF, 1 mM EDTA, 2 mg/mL BSA) plus 2.5 mM UDPG and 10 μM GTP-γ-S. After incubation at 25° C. for 60 to 90 minutes, glucan was harvested by low speed centrifugation (3,000×g, 10 min). […]

Chain of glucan synthase (GS) prepared from Candida albicans MY1055 (O13428 1-1897): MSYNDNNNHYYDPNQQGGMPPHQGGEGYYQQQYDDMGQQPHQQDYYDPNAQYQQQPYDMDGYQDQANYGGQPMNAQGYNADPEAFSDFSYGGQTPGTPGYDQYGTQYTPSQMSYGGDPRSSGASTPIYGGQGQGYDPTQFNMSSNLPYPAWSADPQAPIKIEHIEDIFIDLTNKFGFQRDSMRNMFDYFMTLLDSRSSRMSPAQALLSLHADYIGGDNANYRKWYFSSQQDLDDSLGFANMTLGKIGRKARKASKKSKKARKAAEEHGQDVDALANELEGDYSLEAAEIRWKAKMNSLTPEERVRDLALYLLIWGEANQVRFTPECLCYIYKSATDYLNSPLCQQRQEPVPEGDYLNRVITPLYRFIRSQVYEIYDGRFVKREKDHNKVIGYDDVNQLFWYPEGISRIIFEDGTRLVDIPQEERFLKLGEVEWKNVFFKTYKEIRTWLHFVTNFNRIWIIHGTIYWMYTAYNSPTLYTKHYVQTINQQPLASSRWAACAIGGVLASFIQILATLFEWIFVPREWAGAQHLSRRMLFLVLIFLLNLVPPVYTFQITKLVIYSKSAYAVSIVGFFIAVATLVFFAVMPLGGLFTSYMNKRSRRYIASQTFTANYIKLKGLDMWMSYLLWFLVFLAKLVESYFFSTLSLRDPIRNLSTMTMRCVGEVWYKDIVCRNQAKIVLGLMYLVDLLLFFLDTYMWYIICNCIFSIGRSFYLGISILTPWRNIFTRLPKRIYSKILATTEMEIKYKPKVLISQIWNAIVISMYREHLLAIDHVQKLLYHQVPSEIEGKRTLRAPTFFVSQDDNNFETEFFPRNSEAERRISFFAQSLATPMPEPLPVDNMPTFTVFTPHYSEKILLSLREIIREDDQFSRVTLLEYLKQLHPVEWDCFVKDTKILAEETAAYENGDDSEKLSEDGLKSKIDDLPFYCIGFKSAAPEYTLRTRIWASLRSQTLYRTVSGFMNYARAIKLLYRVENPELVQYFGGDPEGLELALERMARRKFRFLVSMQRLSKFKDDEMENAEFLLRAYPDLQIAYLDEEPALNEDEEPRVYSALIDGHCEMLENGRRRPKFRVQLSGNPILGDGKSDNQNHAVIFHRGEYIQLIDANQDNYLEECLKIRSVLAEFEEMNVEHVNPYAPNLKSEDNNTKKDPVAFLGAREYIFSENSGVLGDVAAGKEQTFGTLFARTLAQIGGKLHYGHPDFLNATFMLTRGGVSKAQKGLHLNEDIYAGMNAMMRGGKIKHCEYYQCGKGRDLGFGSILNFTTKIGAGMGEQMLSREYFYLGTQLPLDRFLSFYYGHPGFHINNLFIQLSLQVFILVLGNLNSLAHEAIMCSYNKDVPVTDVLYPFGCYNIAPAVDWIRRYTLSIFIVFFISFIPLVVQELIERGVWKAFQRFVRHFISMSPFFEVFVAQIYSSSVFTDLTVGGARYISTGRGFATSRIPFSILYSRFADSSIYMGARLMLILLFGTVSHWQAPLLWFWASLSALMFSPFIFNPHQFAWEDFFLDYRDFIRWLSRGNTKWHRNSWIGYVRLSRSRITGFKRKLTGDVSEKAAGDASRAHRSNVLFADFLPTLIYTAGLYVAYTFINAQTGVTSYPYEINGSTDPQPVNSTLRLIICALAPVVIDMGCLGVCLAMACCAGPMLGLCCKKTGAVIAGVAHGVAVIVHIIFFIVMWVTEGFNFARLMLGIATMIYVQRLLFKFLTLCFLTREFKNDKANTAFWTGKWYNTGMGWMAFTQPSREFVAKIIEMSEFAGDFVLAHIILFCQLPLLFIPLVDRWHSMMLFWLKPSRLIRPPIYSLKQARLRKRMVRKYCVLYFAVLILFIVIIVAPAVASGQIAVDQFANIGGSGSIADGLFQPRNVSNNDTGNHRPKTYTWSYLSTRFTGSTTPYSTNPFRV

With `CC(C)[C@@H](C)[C@@]1(C)CC[C@]2(C)[C@H]3CC[C@@H]4[C@@]5(COC[C@@]4(C)[C@@H](OC[C@](C)(N)C(C)(C)C)[C@H](n4ncnc4-c4ccc(C(=O)O)cc4)C5)C3=CC[C@@]2(C)[C@@H]1C(=O)O` [Example 235, (1S,4aR,6aS,7R,8R,10aR,10bR,12aR,14R,15R)-15-[[(2R)-2-amino-2,3,3-trimethylbutyl]oxy]-14-[5-(4-carboxyphenyl)-1H-1,2,4-triazol-1-yl]-8-[(1R)-1,2-dimethylpropyl]-1,6,6a,7,8,9,10,10a,10b,11,12,12a-dodecahydro-1,6a,8,10a-tetramethyl-4H-1,4a-propano-2H-phenanthro[1,2-c]pyran-7-carboxylic acid] as the compound, how does the IC50 read?
The IC50 was 6.47 nM.

`CNC1(CO[C@H]2[C@H](n3ncnc3C(N)=O)C[C@@]34COC[C@]2(C)[C@@H]3CC[C@H]2C4=CC[C@@]3(C)[C@H](C(=O)O)[C@@](C)([C@H](C)C(C)C)CC[C@]23C)CCCCC1` [Example 107, (1S,4aR,6aS,7R,8R,10aR,10bR,12aR,14R,15R)-14-[5-(aminocarbonyl)-1H-1,2,4-triazol-1-yl]-8-[(1R)-1,2-dimethylpropyl]-15-[[1-(methylamino)cyclohexyl]methoxy]-1,6,6a,7,8,9,10,10a,10b,11,12,12a-dodecahydro-1,6a,8,10a-tetramethyl-4H-1,4a-propano-2H-phenanthro[1,2-c]pyran-7-carboxylic acid] was tested. Which IC50 did it give?
The IC50 was 19.8 nM.

How did the IC50 turn out when `CC(C)[C@@H](C)[C@@]1(C)CC[C@]2(C)[C@H]3CC[C@@H]4[C@@]5(COC[C@@]4(C)[C@@H](OC[C@H](N)C(C)(C)C)[C@H](n4ncnc4C(N)=O)C5)C3=CC[C@@]2(C)[C@@H]1C(=O)O` [Example 97, (1S,4aR,6aS,7R,8R,10aR,10bR,12aR,14R,15R)-14-[5-(aminocarbonyl)-1H-1,2,4-triazol-1-yl]-15-[[(2R)-2-amino-3,3-dimethylbutyl]oxy]-8-[(1R)-1,2-dimethylpropyl]-1,6,6a,7,8,9,10,10a,10b,11,12,12a-dodecahydro-1,6a,8,10a-tetramethyl-4H-1,4a-propano-2H-phenanthro[1,2-c]pyran-7-carboxylic acid] was run?
The IC50 was 11.7 nM.

How did the IC50 turn out when `CC(C)[C@@H](C)[C@@]1(C)CC[C@]2(C)[C@H]3CC[C@@H]4[C@@]5(COC[C@@]4(C)[C@@H](OC[C@](C)(N)C(C)C)[C@H](n4nc(N)nc4C(N)=O)C5)C3=CC[C@@]2(C)[C@@H]1C(=O)O` [Example 119, (1S,4aR,6aS,7R,8R,10aR,10bR,12aR,14R,15R)-14-[3-amino-5-(aminocarbonyl)-1H-1,2,4-triazol-1-yl]-15-[[(2R)-2-amino-2,3-dimethylbutyl]oxy]-8-[(1R)-1,2-dimethylpropyl]-1,6,6a,7,8,9,10,10a,10b,11,12,12a-dodecahydro-1,6a,8,10a-tetramethyl-4H-1,4a-propano-2H-phenanthro[1,2-c]pyran-7-carboxylic acid] was run?
Its IC50 is 12.9 nM.

`C=C(C)c1ncnn1[C@@H]1C[C@@]23COC[C@](C)([C@@H]2CC[C@H]2C3=CC[C@@]3(C)[C@H](C(=O)O)[C@@](C)([C@H](C)C(C)C)CC[C@]23C)[C@H]1OC[C@](C)(N)C(C)C` [Example 168, (1S,4aR,6aS,7R,8R,10aR,10bR,12aR,14R,15R)-15-[[(2R)-2-amino-2,3-dimethylbutyl]oxy]-8-[(1R)-1,2-dimethylpropyl]-14-[5-(1-methylethenyl)-1H-1,2,4-triazol-1-yl]-1,6,6a,7,8,9,10,10a,10b,11,12,12a-dodecahydro-1,6a,8,10a-tetramethyl-4H-1,4a-propano-2H-phenanthro[1,2-c]pyran-7-carboxylic acid] was tested. Which IC50 did it give?
Its IC50 is 4.42 nM.

For `CN[C@@](C)(CO[C@H]1[C@H](n2ncnc2-c2cccs2)C[C@@]23COC[C@]1(C)[C@@H]2CC[C@H]1C3=CC[C@@]2(C)[C@H](C(=O)O)[C@@](C)([C@H](C)C(C)C)CC[C@]12C)C(C)C` [Example 163, (1S,4aR,6aS,7R,8R,10aR,10bR,12aR,14R,15R)-15-[[(2R)-2,3-dimethyl-2-(methylamino)butyl]oxy]-8-[(1R)-1,2-dimethylpropyl]-14-[5-(2-thienyl)-1H-1,2,4-triazol-1-yl]-1,6,6a,7,8,9,10,10a,10b,11,12,12a-dodecahydro-1,6a,8,10a-tetramethyl-4H-1,4a-propano-2H-phenanthro[1,2-c]pyran-7-carboxylic acid], which IC50 is on record?
Its IC50 is 6.8 nM.

`CC(C)[C@@H](C)[C@@]1(C)CC[C@]2(C)[C@H]3CC[C@@H]4[C@@]5(COC[C@@]4(C)[C@@H](OC[C@](C)(N)C(C)(C)C)[C@H](n4cnnc4)C5)C3=CC[C@@]2(C)[C@@H]1C(=O)O` [Example 1B, (1S,4aR,6aS,7R,8R,10aR,10bR,12aR,14R,15R)-15-[[(2R)-2-amino-2,3,3-trimethylbutyl]oxy]-8-[(1R)-1,2-dimethylpropyl]-14-(4H-1,2,4-triazol-4-yl)-1,6,6a,7,8,9,10,10a,10b,11,12,12a-dodecahydro-1,6a,8,10a-tetramethyl-4H-1,4a-propano-2H-phenanthro[1,2-c]pyran-7-carboxylic acid] was tested. Which IC50 did it give?
The IC50 was 42.9 nM.

How did the IC50 turn out when `CC(C)[C@@H](C)[C@@]1(C)CC[C@]2(C)[C@H]3CC[C@@H]4[C@@]5(COC[C@@]4(C)[C@@H](OC[C@](C)(N)C(C)C)[C@H](n4nc(N)nc4-c4ccccc4)C5)C3=CC[C@@]2(C)[C@@H]1C(=O)O` [Example 36, (1S,4aR,6aS,7R,8R,10aR,10bR,12aR,14R,15R)-15-[[(2R)-2-amino-2,3-dimethylbutyl]oxy]-14-(3-amino-5-phenyl-1H-1,2,4-triazol-1-yl)-8-[(1R)-1,2-dimethylpropyl]-1,6,6a,7,8,9,10,10a,10b,11,12,12a-dodecahydro-1,6a,8,10a-tetramethyl-4H-1,4a-propano-2H-phenanthro[1,2-c]pyran-7-carboxylic acid] was run?
Its IC50 is 13.7 nM.

`CC(C)[C@@H](C)[C@@]1(C)CC[C@]2(C)[C@H]3CC[C@@H]4[C@@]5(COC[C@@]4(C)[C@@H](OC[C@](C)(N)C(C)C)[C@H](n4nc(N)nc4C4CC4)C5)C3=CC[C@@]2(C)[C@@H]1C(=O)O` (single isomer, unassigned) [Example 32A] was tested. Which IC50 did it give?
Its IC50 is 4.32 nM.

How did the IC50 turn out when `COC(=O)N1CCC(c2ncnn2[C@@H]2C[C@@]34COC[C@](C)([C@@H]3CC[C@H]3C4=CC[C@@]4(C)[C@H](C(=O)O)[C@@](C)([C@H](C)C(C)C)CC[C@]34C)[C@H]2OC[C@](C)(N)C(C)(C)C)CC1` [Example 276, (1S,4aR,6aS,7R,8R,10aR,10bR,12aR,14R,1SR)-15-[[(2R)-2-amino-2,3,3-trimethylbutyl]oxy]-8-[(1R)-1,2-dimethylpropyl]-14-[5-[1-(methoxycarbonyl)-4-piperidinyl]-1H-1,2,4-triazol-1-yl]-1,6,6a,7,8,9,10,10a,10b,11,12,12a-dodecahydro-1,6a,8,10a-tetramethyl-4H-1,4a-propano-2H-phenanthro[1,2-c]pyran-7-carboxylic acid] was run?
Its IC50 is 2.52 nM.

Which IC50 does the source give for `CC(C)[C@@H](C)[C@@]1(C)CC[C@]2(C)[C@H]3CC[C@@H]4[C@@]5(COC[C@@]4(C)[C@@H](OC[C@](C)(N)C(C)C)[C@H](n4ncnc4C(=O)NCC(F)(F)F)C5)C3=CC[C@@]2(C)[C@@H]1C(=O)O` [Example 80, (1S,4aR,6aS,7R,8R,10aR,10bR,12aR,14R,15R)-15-[[(2R)-2-amino-2,3-dimethylbutyl]oxy]-8-[(1R)-1,2-dimethylpropyl]-14-[5-[[(2,2,2-trifluoroethyl)amino]carbonyl]-1H-1,2,4-triazol-1-yl]-1,6,6a,7,8,9,10,10a,10b,11,12,12a-dodecahydro-1,6a,8,10a-tetramethyl-4H-1,4a-propano-2H-phenanthro[1,2-c]pyran-7-carboxylic acid] here?
Its IC50 is 10.5 nM.
